# Data reported in US20240336568A1, “SELECTIVE PHD1 INHIBITOR COMPOUNDS, COMPOSITIONS, AND METHODS OF USE” (Akebia Therapeutics, Inc., priority 2021, published 2024).
# Tested on: full-length human prolyl-4-hydroxylase domain (PHD) enzymes, PHD1 and PHD2
# Experiment: TR-FRET assay, selectivity of compounds for PHD1 over PHD2 (ratio of Kis calculated from IC50s)
# Assay type: biochemical
# Details: ratio of Kis (PHD2 Ki/PHD1 Ki), Kis calculated from TR-FRET IC50s by Cheng Prussoff equation; 1 uM 2-OG
# Text: Time-resolved fluorescence resonance energy transfer (TR-FRET) assay was utilized to determine the enzymatic half maximal inhibitory concentration (IC50) value of PHD inhibitors against the full-length human prolyl-4-hydroxylase domain (PHD) enzymes, PHD1 and PHD2. The TR-FRET assay was developed based on the specific binding of hydroxylated HIF-la peptide with the complex formed by VHL, EloB and EloC (VBC), to generate a fluorescent signal. Terbium (Tb)-Donor (monoclonal antibody anti-6His-Tb-cryptate Gold) and D2-acceptor (streptavidin [SA]-D2) of TR-FRET are linked to the VBC complex and to HIF-1α peptide, respectively. The VBC complex binds specifically to the HIF-1α peptide when it is hydroxylated, allowing energy transfer from TR-FRET donor to acceptor (FIG. 1).
# TR-FRET Reagents. Monoclonal antibody anti-6His-Tb-cryptate Gold (catalog #61HI2TLA) and streptavidin (SA)-D2 (catalog #610SADLA) were purchased from CisBio International (Bedford, MA, USA).
# N-terminus biotinylated HIF-1α C35 synthetic peptide representing amino acids 547 to 581 and including the proline 564 PHD2 hydroxylation site was purchased from California Peptide Research (Salt Lake City, UT, USA).
# VBC Complex. His-tagged recombinant VHL protein, EloB, EloC complex (His-VBC) was supplied by Axxam (Milan, Italy). Recombinant human VHL (National Center for Biotechnology Information [NCBI] accession number NP_00542.1) contained a His tag at the C-terminus of amino acids 55 to 213 and is referred to as VHL-His. VHL-His was co-expressed in E. coli with full-length human EloB (NCBI accession number Q15370.1) and full-length human EloC (NCBI accession number Q15369.1) and purified by affinity chromatography on a nickel-nitrilotriacetic acid (Ni-NTA) column as the His-VBC complex. Purity (˜80%) was assessed by sodium dodecyl sulfate polyacrylamide gel electrophoresis (SDS-PAGE).
# PHD1. Recombinant human PHD1 protein (catalog #81064, Lot #24717001) was purchased from Active Motif (Carlsbad, CA, USA). PHD1 was expressed in a baculovirus expression system as the full-length protein (NCBI accession number NP_542770.2) with an N-terminal FLAG tag (molecular weight 44.9 kDa). Purity (>90%) was assessed by SDS-PAGE.
# PHD2. The full-length human PHD2 enzyme was produced with a baculovirus infected insect cell (BIIC) expression system by Beryllium (Bedford, MA, USA). The PHD2 construct contained amino acids 1 to 426 of PHD2 (UniProt Knowledgebase[UniProtKB]/Swiss-Prot accession number Q9GZT9.1), and a His tag and a Tobacco Etch Virus (TEV) protease cleavage site at the N-terminus. The construct was expressed in Sf9 insect cells, purified by Ni-NTA column and digested with TEV protease to remove the His tag.
# Compounds were preincubated with PHD enzyme in a 10 μL reaction volume in white 384-well Optiplate microplates (catalog #6007290, Perkin Elmer, Waltham, MA, USA). For this, 5 μL compound was serially diluted with dilution buffer (50 mM HEPES [4-(2-hydroxyethyl)-1-piperazineethanesulfonic acid] pH 7.5, 50 mM sodium chloride [NaCl], 0.01% Tween-20, 0.01% purified bovine serum albumin [BSA]) and mixed with 5 μL PHD enzyme mix prepared as a 4× concentrate in the dilution buffer containing PHD enzyme (60 nM PHD1, 20 nM PHD2, 140 nM PHD3), 40 μM ferrous ammonium sulfate (FAS), 4 mM sodium (Na) ascorbate. The plates were incubated for 30 minutes at room temperature without rotation.
# Five microliters of the VBC/anti-6His-Tb-cryptate Gold mix prepared as a 4× concentrate in dilution buffer containing 20 nM His-VBC, 1.32 nM monoclonal antibody anti-6His-Tb-cryptate Gold was then added. This step was followed immediately by the addition of 5 μL of the HIF-1α C35 substrate mix prepared as a 4× concentrate in the dilution buffer containing 120 nM biotin-labeled HIF-1α C35, 132 nM SA-D2, 4 μM 2-oxoglutarate (2-OG) to reach a final reaction volume of 20 μL. […]
row,Compound,Selectivity of PHD1 over PHD2 [fold]
1,"O=C(O)CCNC(=O)c1ncc(-c2cnn(-c3ccccc3)c2)cc1O [compound 54, 3-(3-hydroxy-5-(1-phenyl-1H-pyrazol-4-yl)picolinamido)propanoic acid]",~11
2,"COc1cc2c(-c3cnc(C(=O)NCC(C)(C)C(=O)O)c(O)c3)cn(C)c2cn1 [compound 55, 3-(3-hydroxy-5-(5-methoxy-1-methyl-1H-pyrrolo[2,3-c]pyridin-3-yl)picolinamido)-2,2-dimethylpropanoic acid]",~96
3,"CC(C)(CNC(=O)c1ncc(-c2scc3c2OCCO3)cc1O)C(=O)O [compound 56, 3-(5-(2,3-dihydrothieno[3,4-b][1,4]dioxin-5-yl)-3-hydroxypicolinamido)-2,2-dimethylpropanoic acid]",~44
4,"CC(C)(CNC(=O)c1ncc(-c2ccc3c(=O)[nH]ncc3c2)cc1O)C(=O)O [compound 57, 3-(3-hydroxy-5-(1-oxo-1,2-dihydrophthalazin-6-yl)picolinamido)-2,2-dimethylpropanoic acid]",~64
5,"CCOc1ccc2cc(-c3cnc(C(=O)NCC(C)(C)C(=O)O)c(O)c3)ccc2c1 [compound 58, 3-(5-(6-ethoxynaphthalen-2-yl)-3-hydroxypicolinamido)-2,2-dimethylpropanoic acid]",~911
6,"CC(C)(CNC(=O)c1ncc(-c2ccc3cc(NS(C)(=O)=O)ccc3c2)cc1O)C(=O)O [compound 59, 3-(3-hydroxy-5-(6-(methylsulfonamido)naphthalen-2-yl)picolinamido)-2,2-dimethylpropanoic acid]",~88
7,"Cc1c(-c2cnc(C(=O)NCC(C)(C)C(=O)O)c(O)c2)ccc2ccccc12 [compound 60, 3-(3-hydroxy-5-(1-methylnaphthalen-2-yl)picolinamido)-2,2-dimethylpropanoic acid]",~204
8,"CC(C)c1ccc2sc(-c3cnc(C(=O)NCC(C)(C)C(=O)O)c(O)c3)cc2c1 [compound 61, 3-(3-hydroxy-5-(5-isopropylbenzo[b]thiophen-2-yl)picolinamido)-2,2-dimethylpropanoic acid]",~341
9,"O=C(O)CCNC(=O)c1ncc(-c2ccc3ccccc3c2)cc1O [compound 62, 3-(3-hydroxy-5-(naphthalen-2-yl)picolinamido)propanoic acid]",~24
